The values below come from US11267825B2 (AICURIS GMBH & CO. KG, priority 2017, dated 2022).

For assay [1], the target named is HBV core protein (UniProt P03146). It is filed as biochemical. The note with it: read-out: Assembly Activity (IC50); BODIPY-FL labelled core protein, assembly started with NaCl, read after 6 min. Summed up:
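Compounds tested at 8 concentrations in 0.5-log steps from 100, 31.6 or 10 μM against 1.0–2.0 μM BODIPY-FL-labelled Cys150 core dimers (residues 1–149), 50 mM HEPES pH 7.5. NaCl ([…] final) triggered assembly; quenching read at 6 min, 477/525 nm, with 2.5 M and 0 M NaCl as controls; EC50 by nonlinear fit.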

Assay [2] relates to HBV. Nature of the assay: Determination of HBV DNA from the supernatants of HepAD38 cells (anti-HBV activity). The format is cell-based, hepatitis B virus. The settings on record: Hepatitis B virus, 144 h; HBV DNA in HepAD38 supernatant at day 6; read-out: Cell Activity (EC50). Summed up: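 EC50 values were obtained by non-linear regression of HBV DNA copy numbers measured by qPCR against pCH-9/3091 plasmid standards. The DNA came from filtered supernatants collected on day 6. Before that, tetracycline-withdrawn HepAD38 cells had been exposed to serial half-log compound dilutions, with tetracycline-treated cells as the non-producing control.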

A value given as a limit tells only on which side of the number the result lay.

Sequence of HBV core protein (P03146 whole entry, looked up, the tested form may be a part): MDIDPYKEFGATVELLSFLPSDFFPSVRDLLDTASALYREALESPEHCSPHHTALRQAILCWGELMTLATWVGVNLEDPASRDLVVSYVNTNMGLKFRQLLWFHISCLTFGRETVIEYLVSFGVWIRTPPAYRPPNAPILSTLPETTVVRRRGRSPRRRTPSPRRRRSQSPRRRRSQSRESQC

As for `CCc1ccc(F)c2[nH]c(C(=O)N3CCc4nc(NCC5(CO)CC5)sc4C3)cc12` [Example 236, [1-({[5-(4-ethyl-7-fluoro-1H-indole-2-carbonyl)-4H,5H,6H,7H-[1,3]thiazolo[5,4-c]pyridin-2-yl]amino}methyl)cyclopropyl]methanol], in assay [1], the half-maximal inhibitory concentration (IC50) was less than 5 µM. In addition, the EC50 in assay [2] was less than 1 µM.
For `COCC1(C(=O)Nc2nc3c(s2)CN(C(=O)c2cc4ccccc4[nH]2)CC3)CC1` [Example 330, N-[5-(1H-indole-2-carbonyl)-4H,5H,6H,7H-[1,3]thiazolo[5,4-c]pyridin-2-yl]-1-(methoxymethyl)cyclopropane-1-carboxamide], the IC50 in assay [1] is 5 to 10 µM. In assay [2], the half-maximal effective concentration (EC50) was less than 1 µM.
For `O=C(c1cc2c(F)cc(F)cc2[nH]1)N1CCc2nc(NCC3CCOC3)sc2C1` (stereo not shown) [Example 119, 5-(4,6-difluoro-1H-indole-2-carbonyl)-N-[(oxolan-3-yl)methyl]-4H,5H,6H,7H-[1,3]thiazolo[5,4-c]pyridin-2-amine], in that order: less than 5 µM and less than 1 µM.
For `Cc1cccc2[nH]c(C(=O)N3CCc4nc(NCC5(CO)CC5)sc4C3)cc12` [Example 64, [1-({[5-(4-methyl-1H-indole-2-carbonyl)-4H,5H,6H,7H-[1,3]thiazolo[5,4-c]pyridin-2-yl]amino}methyl)cyclopropyl]methanol], in that order: less than 5 µM and less than 1 µM.
The matching figures for `CCOC(=O)N1CCC(Nc2nc3c(s2)CN(C(=O)c2cc4ccccc4[nH]2)CC3)CC1` [Example 5, Ethyl 4-{[5-(1H-indole-2-carbonyl)-4H,5H,6H,7H-[1,3]thiazolo[5,4-c]pyridin-2-yl]amino}piperidine-1-carboxylate]: 5 to 10 µM and less than 1 µM.
Regarding `Nc1nc2c(s1)CN(C(=O)c1cc3c(Cl)cc(Cl)cc3[nH]1)CC2` [Example 168, 5-(4,6-dichloro-1H-indole-2-carbonyl)-4H,5H,6H,7H-[1,3]thiazolo[5,4-c]pyridin-2-amine], the IC50 in assay [1] is less than 5 µM. Also, the EC50 in assay [2] is less than 1 µM.
As for `CCc1ccc(F)c2[nH]c(C(=O)N3CCc4nc(N)sc4C3)cc12` [Example 8, 5-(4-ethyl-7-fluoro-1H-indole-2-carbonyl)-4H,5H,6H,7H-[1,3]thiazolo[5,4-c]pyridin-2-amine], the IC50 in assay [1] was less than 5 µM. The EC50 in assay [2] is less than 1 µM.
For `Cc1nc2c(s1)CN(C(=O)c1cc3cc(Cl)ccc3[nH]1)CC2` [Example 161, 5-chloro-2-{2-methyl-4H,5H,6H,7H-[1,3]thiazolo[5,4-c]pyridine-5-carbonyl}-1H-indole], the IC50 in assay [1] is 5 to 10 µM. In addition, in assay [2], the EC50 lay within 1 to 10 µM.
The matching figures for `CN(CC1CCOC1)c1nc2c(s1)CN(C(=O)c1cc3ccccc3[nH]1)CC2` (stereo not shown) [Example 110, 5-(1H-indole-2-carbonyl)-N-methyl-N-[(oxolan-3-yl)methyl]-4H,5H,6H,7H-[1,3]thiazolo[5,4-c]pyridin-2-amine]: less than 100 µM and 1 to 10 µM.
The matching figures for `NCc1nc2c(s1)CN(C(=O)c1cc3ccccc3[nH]1)CC2` [Example 18, [5-(1H-indole-2-carbonyl)-4H,5H,6H,7H-[1,3]thiazolo[5,4-c]pyridin-2-yl]methanamine]: less than 100 µM and 1 to 10 µM.
As for `N#Cc1cccc2[nH]c(C(=O)N3CCc4nc(N)sc4C3)cc12` [Example 83, 5-(4-cyano-1H-indole-2-carbonyl)-4H,5H,6H,7H-[1,3]thiazolo[5,4-c]pyridin-2-amine], in assay [1], the IC50 was less than 5 µM. In addition, in assay [2], the EC50 fell in the range of 1 to 10 µM.
For `CC(C)(C)NC(=O)Nc1nc2c(s1)CN(C(=O)c1cc3c(Cl)cc(F)cc3[nH]1)CC2` [Example 265, 3-tert-butyl-1-[5-(4-chloro-6-fluoro-1H-indole-2-carbonyl)-4H,5H,6H,7H-[1,3]thiazolo[5,4-c]pyridin-2-yl]urea], in that order: less than 100 µM and less than 1 µM.
For `Cc1c(Cl)ccc2cc(C(=O)N3CCc4nc(N)sc4C3)[nH]c12` [Example 134, 5-(6-chloro-7-methyl-1H-indole-2-carbonyl)-4H,5H,6H,7H-[1,3]thiazolo[5,4-c]pyridin-2-amine], in that order: less than 5 µM and less than 1 µM.
For `Cc1nc2c(s1)CN(C(=O)c1cc3cc(F)c(F)cc3[nH]1)CC2` [Example 164], the IC50 in assay [1] is less than 5 µM. Also, the EC50 in assay [2] is less than 1 µM.
For `O=C(c1cc2ccccc2[nH]1)N1CCc2nc(NC[C@H]3C[C@@H]4CC[C@H]3O4)sc2C1` (racemic) [Example 34, (+/−)-cis-5-(1H-indole-2-carbonyl)-N-{1[(1R,2R,4S)-7-oxabicyclo[2.2.1]heptan-2-yl]methyl}-4H,5H,6H,7H-[1,3]thiazolo[5,4-c]pyridin-2-amine], in that order: less than 5 µM and less than 1 µM.
The matching figures for `Nc1nc2c(s1)CN(C(=O)c1cc3cc(F)c(F)cc3[nH]1)CC2` [Example 159, 5-(5,6-difluoro-1H-indole-2-carbonyl)-4H,5H,6H,7H-[1,3]thiazolo[5,4-c]pyridin-2-amine]: less than 5 µM and less than 1 µM.
The matching figures for `Nc1nc2c(s1)CN(C(=O)c1cc3cc(F)cc(F)c3[nH]1)CC2` [Example 160, 5-(5,7-difluoro-1H-indole-2-carbonyl)-4H,5H,6H,7H-[1,3]thiazolo[5,4-c]pyridin-2-amine]: less than 5 µM and less than 1 µM.
`Cc1nc2c(s1)CN(C(=O)c1cc3cccc(OC(F)(F)F)c3[nH]1)CC2` [Example 183, 2-{2-methyl-4H,5H,6H,7H-[1,3]thiazolo[5,4-c]pyridine-5-carbonyl}-7-(trifluoromethoxy)-1H-indole]: the IC50 in assay [1] is less than 100 µM. Also, the EC50 in assay [2] was less than 100 µM.
In the case of `CC(C)(O)CNc1nc2c(s1)CN(C(=O)c1cc3ccccc3[nH]1)CC2` [Example 95, 1-{[5-(1H-indole-2-carbonyl)-4H,5H,6H,7H-[1,3]thiazolo[5,4-c]pyridin-2-yl]amino}-2-methylpropan-2-ol], in assay [1], the IC50 is less than 5 µM. Further, the EC50 in assay [2] was less than 1 µM.
The matching figures for `Cc1cc(Cl)cc2cc(C(=O)N3CCc4nc(N)sc4C3)[nH]c12` [Example 139, 5-(5-chloro-7-methyl-1H-indole-2-carbonyl)-4H,5H,6H,7H-[1,3]thiazolo[5,4-c]pyridin-2-amine]: less than 100 µM and less than 100 µM.
For the compound `CNC(=O)C1(CNc2nc3c(s2)CN(C(=O)c2cc4ccccc4[nH]2)CC3)CCC1` [Example 428, 1-({[5-(1H-indole-2-carbonyl)-4H,5H,6H,7H-[1,3]thiazolo[5,4-c]pyridin-2-yl]amino}methyl)-N-methylcyclobutane-1-carboxamide], the IC50 in assay [1] is less than 5 µM. Further, in assay [2], the EC50 is less than 1 µM.
For `O=C(c1cc2ccccc2[nH]1)N1CCc2nc(NC3(CO)CC3)sc2C1` [Example 230, (1-{[5-(1H-indole-2-carbonyl)-4H,5H,6H,7H-[1,3]thiazolo[5,4-c]pyridin-2-yl]amino}cyclopropyl)methanol], in that order: less than 5 µM and less than 1 µM.
Regarding `Cc1nc2c(s1)CN(C(=O)c1cc3c(Cl)cc(F)cc3[nH]1)CC2` [Example 187, 4-chloro-6-fluoro-2-{2-methyl-4H,5H,6H,7H-[1,3]thiazolo[5,4-c]pyridine-5-carbonyl}-1H-indole], the IC50 in assay [1] was less than 5 µM. Also, the EC50 in assay [2] is less than 1 µM.
In the case of `Nc1nc2c(s1)CN(C(=O)c1cc3cc(F)ccc3[nH]1)CC2` [Example 196, 5-(5-fluoro-1H-indole-2-carbonyl)-4H,5H,6H,7H-[1,3]thiazolo[5,4-c]pyridin-2-amine], in assay [1], the IC50 was less than 5 µM. The EC50 in assay [2] was 1 to 10 µM.
The matching figures for `CCc1cc(F)cc2[nH]c(C(=O)N3CCc4nc(NC[C@H]5CCOC5)sc4C3)cc12` [Example 329, 5-(4-ethyl-6-fluoro-1H-indole-2-carbonyl)-N-{[(3R)-oxolan-3-yl]methyl}-4H,5H,6H,7H-[1,3]thiazolo[5,4-c]pyridin-2-amine]: less than 5 µM and less than 1 µM.
The matching figures for `O=C(c1cc2ccccc2[nH]1)N1CCc2nc(NCC(CO)C3CC3)sc2C1` (stereo not shown) [Example 284, 2-cyclopropyl-3-{[5-(1H-indole-2-carbonyl)-4H,5H,6H,7H-[1,3]thiazolo[5,4-c]pyridin-2-yl]amino}propan-1-ol]: less than 5 µM and less than 1 µM.
The matching figures for `O=C(c1cc2ccccc2[nH]1)N1CCc2nc(NC(CO)C3CCOC3)sc2C1` (stereo not shown) [Example 297, 2-{[5-(1H-indole-2-carbonyl)-4H,5H,6H,7H-[1,3]thiazolo[5,4-c]pyridin-2-yl]amino}-2-(oxolan-3-yl)ethan-1-ol]: less than 5 µM and less than 1 µM.
With `Nc1nc2c(s1)CN(C(=O)c1cc3c(C(F)F)ccc(F)c3[nH]1)CC2` [Example 341, 5-[4-(difluoromethyl)-7-fluoro-1H-indole-2-carbonyl]-4H,5H,6H,7H-[1,3]thiazolo[5,4-c]pyridin-2-amine], in assay [1], the concentration for half-maximal inhibition (IC50) is less than 5 µM. In assay [2], the EC50 lay within 1 to 10 µM.
For `CN(C)CC(=O)Nc1nc2c(s1)CN(C(=O)c1cc3ccccc3[nH]1)CC2` [Example 62, 2-(dimethylamino)-N-[5-(1H-indole-2-carbonyl)-4H,5H,6H,7H-[1,3]thiazolo[5,4-c]pyridin-2-yl]acetamide], in that order: 5 to 10 µM and less than 1 µM.
